ChEMBL document CHEMBL1133880 (Bioorg Med Chem Lett, 2001)
Residues, ends and D or L forms follow the SMILES beside them. *: point of attachment. Octanoyl = CCCCCCCC(=O)*

Columns and labels:
[1] = target: T1, Growth hormone secretagogue receptor type 1 (Homo sapiens, UniProt Q92847); assay: Binding affinity towards human Growth hormone secretagogue receptor type 1 using competitive binding assay with radiolabeled [35S]-MK-0677 expressed as IC50
[2] = target: T1, Growth hormone secretagogue receptor type 1; assay: Functional potency measured as intracellular calcium elevation in Hek-293 cells expressing hGHSR1a; format: cell-based, HEK293

T1 sequence (Q92847 whole entry): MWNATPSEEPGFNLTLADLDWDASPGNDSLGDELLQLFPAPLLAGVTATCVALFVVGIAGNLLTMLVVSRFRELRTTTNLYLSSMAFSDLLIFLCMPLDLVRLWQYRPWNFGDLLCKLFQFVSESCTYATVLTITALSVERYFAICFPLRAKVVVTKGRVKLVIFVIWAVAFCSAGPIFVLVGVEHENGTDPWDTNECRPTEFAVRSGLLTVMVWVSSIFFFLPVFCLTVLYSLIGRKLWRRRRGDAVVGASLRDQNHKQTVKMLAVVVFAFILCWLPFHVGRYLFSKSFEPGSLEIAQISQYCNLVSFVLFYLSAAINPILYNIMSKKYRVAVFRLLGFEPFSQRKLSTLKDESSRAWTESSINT

Row | Structure (SMILES) | IC50 [1] [nM] | EC50 [2] [nM]
1 | CS(=O)(=O)N1CC2(CCN(C(=O)[C@@H](COCc3ccccc3)NC(=O)[C@H](CO)NC(=O)CN)CC2)c2ccccc21 | 36.2 | 7.95
2 | CCCCCCCC(=O)OC[C@@H](NC(=O)[C@H](CO)NC(=O)CN)C(=O)N1CCC2(CC1)CN(S(C)(=O)=O)c1ccccc12 | 128 | 68.2
3 | CCCCCCCC(=O)OC[C@@H](NC(=O)C(C)(C)N)C(=O)N1CCC2(CC1)CN(S(C)(=O)=O)c1ccccc12 | 8.12 | 19.6
4 | CCCCCCCC(=O)OC[C@H](NC(=O)C(C)(C)N)C(=O)N1CCC2(CC1)CN(S(C)(=O)=O)c1ccccc12 | 590 | 378
5 | CCCCCCCC(=O)OC[C@@H](NC(=O)[C@@H](N)CO)C(=O)N1CCC2(CC1)CN(S(C)(=O)=O)c1ccccc12 | 829 | 432
6 | CS(=O)(=O)N1CC2(CCN(C(=O)[C@@H](COCc3ccccc3)NC(=O)[C@@H](N)CO)CC2)c2ccccc21 | 209 | 69.2
7 | CCCCCCCC(=O)OC[C@H](NC(=O)[C@H](CO)NC(=O)CN)C(=O)N1CCC2(CC1)CN(S(C)(=O)=O)c1ccccc12 | 2670 | 448
8 | CCCCCCCC(=O)OC[C@H](NC(=O)CN)C(=O)N[C@@H](CO)C(=O)N[C@@H](Cc1ccccc1)C(=O)O (H-GS(Octanoyl)SF-OH) | 889 | 72
